The numbers were not newly measured in the CATMoS acute toxicity set (Mansouri et al. 2021), which cites them from elsewhere.

Several values for one entry are separate records, joined by “and”; a condition that tells them apart may be missing. Equal entries are not always repeated.

The nature of the series: rat acute oral toxicity. The settings on record: in vivo.
Turning to `O=C1CCc2cc(C(=O)CCCN3CCN(c4ccccc4)CC3)ccc2N1`, the 50% lethal dose (LD50) was 500 mg/kg.

With `Cc1cccc(NC(=O)c2ccccc2C(=O)O)c1`, the LD50 was 5230 mg/kg.

Take `O=CC1CCC=CO1` (centres undefined): the median lethal dose (LD50) was 4920 mg/kg.

As for `CC(C)=CCC(=O)c1ccoc1`, the LD50 was 25 mg/kg.

On to `CNCCCC12CC(c3ccccc31)c1ccccc12`, for which the LD50 is 1320 mg/kg.

With `c1ccsc1`, the LD50 was 1400 mg/kg.

Turning to `Cc1ccc(=O)n(-c2ccccc2)c1`, the LD50 is 1300 mg/kg.

With `CCCC/C=C\CCCCCCOC(C)=O`, the 50% lethal dose (LD50) is 13400 mg/kg.

On to `FC(F)(F)c1nc2ccc(Br)cc2[nH]1`, for which the LD50 is 49 mg/kg.

Take `Clc1cc2c(c(Cl)c1Cl)Oc1c(Cl)c(Cl)c(Cl)c(Cl)c1O2`: the LD50 was 6.33 mg/kg.

For `C1OC1CSCC1CO1` (centres undefined), the LD50 is 32 mg/kg.

`CCOP(=O)(O)O`: the LD50 is 1600 mg/kg.

For the molecule `COc1cc(C#N)ccc1OP(=S)(OC)OC`, the 50% lethal dose (LD50) was 2710 mg/kg.

As to `Cc1cnc(C)c(C)n1`, the LD50 was 806 mg/kg.

Regarding `O=C(O)c1cccc(Cl)n1`, the median lethal dose (LD50) was 2180 mg/kg.

Consider `CC[N+](C)(C)C(C)CC(c1ccccc1)c1ccccc1` (centres undefined), for which the LD50 was 1000 mg/kg.

For the molecule `Cc1c(C(=O)NCCO)[n+]([O-])c2ccccc2[n+]1[O-]`, the LD50 is 1720 mg/kg.

With `CCCCCCCCCCCCc1ccc(C)c(C[N+](C)(C)C)c1`, the 50% lethal dose (LD50) is 389 mg/kg.

Regarding `C[C@@H]1CN(CCCn2c3ccccc3c3ccccc32)C[C@H](C)N1`, the 50% lethal dose (LD50) was 907 mg/kg.

In the case of `Cc1cc(=O)oc2cc(O)ccc12`, the LD50 is 3850 mg/kg.

Take `CN(C)CC1CCCCC1`: the LD50 was 1230 mg/kg.

As to `CCCCOC(CBr)c1ccccc1` (centres undefined), the LD50 is 250 mg/kg.

In the case of `CCSSCC`, the LD50 was 2030 mg/kg.

For `CC(C)=NN=C(C)C`, the 50% lethal dose (LD50) was 423 mg/kg.

Turning to `CC1=C(C(=O)Nc2ccccc2)CCCO1`, the 50% lethal dose (LD50) is 15000 mg/kg.

On to `Clc1cc2c(cc1Cl)Oc1c(Cl)c(Cl)c(Cl)c(Cl)c1O2`, for which the LD50 is 0.887 mg/kg.

For `N#Cc1cc([N+](=O)[O-])ccc1Cl`, the LD50 is 3200 mg/kg.

With `COc1ccc(C=CC(=O)OCCC(C)C)cc1`, the median lethal dose (LD50) was 9600 mg/kg.

For `CCN(CC)CCO`, the median lethal dose (LD50) was 1300 mg/kg.

In the case of `Cc1cccc(CN2CCN(C(c3ccccc3)c3ccc(Cl)cc3)CC2)c1` (centres undefined), the median lethal dose (LD50) was 1750 mg/kg.

For `OCCOCCN1CCN(C(c2ccccc2)c2ccccc2)CC1`, the LD50 was 840 mg/kg.

With `CC(N)CN` (centres undefined), the LD50 is 2230 mg/kg.

`CCOC(C1=NCC(C)(C)CN1)c1ccccc1` (centres undefined): the 50% lethal dose (LD50) is 875 mg/kg.

In the case of `C#CCON=CC1=CCCNC1`, the LD50 is 80 mg/kg.

Take `CCCC1(c2cccc(O)c2)CCN(C)C1` (centres undefined): the LD50 was 231 mg/kg.

Regarding `COc1cc(Br)c2oc(C3CCNCC3)cc2c1`, the 50% lethal dose (LD50) was 310 mg/kg.

As for `O=S1(=O)CCN(c2ccccc2)CC1`, the median lethal dose (LD50) was 800 mg/kg.

For `CCCC1C2C=CC(C2)C1C=O` (centres undefined), the 50% lethal dose (LD50) was 4600 mg/kg.

For the molecule `CN1Cc2c(N)cccc2C(c2ccccc2)C1` (centres undefined), the median lethal dose (LD50) was 267 mg/kg and 430 mg/kg.

In the case of `CN(C)CCC1Oc2ccccc2Nc2ccccc21` (centres undefined), the 50% lethal dose (LD50) was 1400 mg/kg.

As to `CC(C)NCCCC1(C(N)=O)c2ccccc2-c2ccccc21`, the 50% lethal dose (LD50) was 82 mg/kg.

On to `C=CC(=O)OCCCCCCCCCC`, for which the LD50 is 6460 mg/kg.

Regarding `N#CC(Cl)(Cl)CCl`, the 50% lethal dose (LD50) was 200 mg/kg and 250 mg/kg.

With `O=C1c2cccc(S(=O)(=O)O)c2C(=O)c2cccc(S(=O)(=O)O)c21`, the 50% lethal dose (LD50) was 2360 mg/kg.

On to `O=C(O)C(Cc1cc(I)c(O)c(I)c1)c1ccccc1` (centres undefined), for which the LD50 was 1100 mg/kg.

Consider `O=C(O)COc1ccc2ccccc2c1`, for which the LD50 was 600 mg/kg.

Regarding `CC(=O)OC(C)(C)Cc1ccccc1`, the LD50 is 3300 mg/kg.

For the molecule `CC1(C)CO1`, the LD50 is 3890 mg/kg.

On to `CCS(=O)CCOP(=S)(OC)OC` (centres undefined), for which the LD50 was 600 mg/kg.

As for `CCC1(CC)C(=O)NCC(C)C1=O` (centres undefined), the LD50 is 860 mg/kg.

Consider `CCN(CC)CCOC(=O)CC(O)(c1ccccc1)c1ccccc1`, for which the LD50 was 2310 mg/kg.

On to `Cc1cc(C)c(N)cc1C`, for which the LD50 was 1250 mg/kg and 1580 mg/kg.

Turning to `Clc1ccc(C(OCCN2CCCCC2)c2ccccc2)cc1` (centres undefined), the median lethal dose (LD50) is 1990 mg/kg.

With `CCOC(=O)C1=C(O)c2ccccc2S(=O)(=O)N1C`, the median lethal dose (LD50) was 4800 mg/kg.

As for `CCCCC(CC)C(O)C(=O)O` (centres undefined), the LD50 is 3400 mg/kg.

As to `C=CC(=C)Cl`, the LD50 was 450 mg/kg.

`CCC(C)c1cc([N+](=O)[O-])cc([N+](=O)[O-])c1OC(=O)SC` (centres undefined): the median lethal dose (LD50) was 200 mg/kg.

As to `CCC(C)Nc1ccc(NC(C)CC)cc1` (centres undefined), the 50% lethal dose (LD50) is 148 mg/kg.

For `CNC(=O)Oc1cccc2ccc(C)nc12`, the median lethal dose (LD50) is 120 mg/kg.

For `CCC(CC)C(=O)O`, the LD50 is 2200 mg/kg.

Consider `CCOC(=O)C(Cl)Cc1cc(-n2nc(C)n(C(F)F)c2=O)c(F)cc1Cl` (centres undefined), for which the LD50 is 5140 mg/kg.

For the molecule `Cc1cc(Br)ccc1-n1c(C)nc2ccccc2c1=O`, the LD50 is 240 mg/kg.

In the case of `CCCCC(CC)COP(=O)(OCC(CC)CCCC)OCC(CC)CCCC` (centres undefined), the LD50 was 37000 mg/kg.

For the molecule `O=C1c2ccccc2S(=O)(=O)N1CCCCNC[C@H]1CCc2ccccc2O1`, the LD50 was 324 mg/kg.
